In ChEMBL document CHEMBL3046101, “Synthesis and Biological Activity of 1,2-Dithiolanes and 1,2-Dithianes Bearing a Nitrogen-containing Substituent” (1992) one finds mortality, LD50 and LC50 data, which are given here for 20 molecules.

What all share (assay type): functional
The test system of experiment [1] is Tetranychus urticae. The experiment can be described thus: Acaricidal activity against Tetranychus urticae (two-spotted spider mite) assessed as mortality at 500 ppm.
The test system of experiment [2] is Spodoptera litura. The experiment can be described thus: Insecticidal activity against Spodoptera litura assessed as mortality at 500 ppm.
Experiment [3] deals with Nilaparvata lugens. Briefly: Insecticidal activity against Nilaparvata lugens (brown planthopper) assessed as mortality at 50 ppm.
The test system of experiment [4] is Culex pipiens molestus. The experiment can be described thus: Insecticidal activity against Culex pipiens molestus assessed as mortality at 5 ppm.
The test system of experiment [5] is Chilo suppressalis. Briefly: Insecticidal activity against Chilo suppressalis (rice stem borer) assessed as mortality at 50 ug/g administered as topical application.
For experiment [6], the system named is Chilo suppressalis. Briefly: Insecticidal activity against Chilo suppressalis (rice stem borer) assessed as mortality compound administered as topical application.
The test system of experiment [7] is Tetranychus urticae. The experiment can be described thus: Acaricidal activity against Tetranychus urticae (two-spotted spider mite) assessed as mortality.

Usually mortality stands for the share of the test organisms that died. Take `CN(C)CCCCC1CSSC1.O=C(O)C(=O)O`: the mortality at 500 ppm is 100% in experiment [1] and 0% in experiment [2]. Further, the mortality at 50 ppm in experiment [3] was determined as 20%. In experiment [4], the mortality at 5 ppm was found to be 75%. In experiment [5], the mortality is reported as 0%.

Regarding `CN(C)CC1CCC(CN(C)C)SS1.O=C(O)C(=O)O` (stereo not drawn), the values for the mortality at 500 ppm in experiment [1] and in experiment [2] were 100% and 0%, respectively. Moreover, the mortality at 50 ppm in experiment [3] stood at 0%. In addition, the mortality at 5 ppm in experiment [4] turned out to be 0%. Moreover, the mortality in experiment [5] is recorded as 0%.

As a reminder, the LD50 is the dose at which mortality reaches 50%. A word on the LC50: it is the concentration lethal to half of the exposed cells or organisms. `CN(C)C1CSSC1.O=C(O)C(=O)O` [NEREISTOXIN HYDROGEN OXALATE]: the mortality at 500 ppm stood at 50% in experiment [1] and 30% in experiment [2]. For the same molecule, in experiment [6], the LD50 amounted to 1.7 mg/kg. Moreover, the LC50 in experiment [7] stood at 603 µg/mL. The mortality at 50 ppm in experiment [3] worked out at 100%. The mortality at 5 ppm in experiment [4] worked out at 100%. Also, in experiment [5], the mortality was 100%.

With `CN(C)CC1CSSC1.O=C(O)C(=O)O`, the results for the mortality at 500 ppm in experiment [1] and in experiment [2] were 100% and 90%, respectively. The LC50 in experiment [7] is 88 µg/mL. For the same molecule, the mortality at 50 ppm in experiment [3] amounted to 100%. Further, the mortality at 5 ppm in experiment [4] is 100%. In addition, the mortality in experiment [5] worked out at 100%.

With `CC1CSSC1CN(C)C.O=C(O)C(=O)O` (stereo not drawn), the mortality at 500 ppm in experiment [1] is 100%; in experiment [2], 0%. Moreover, the LD50 in experiment [6] was 50 mg/kg. Besides, the LC50 in experiment [7] was 209 µg/mL. Also, in experiment [3], the mortality at 50 ppm came to 75%. In addition, the mortality at 5 ppm in experiment [4] amounted to 0%. Also, the mortality in experiment [5] was found to be 80%.

In the case of `CN(C)C[C@H]1C[C@@H](CN(C)C)SS1.O=C(O)C(=O)O`, the mortality at 500 ppm in experiment [1] was 100%; in experiment [2], 30%. The LC50 in experiment [7] is 20 µg/mL. Also, the mortality at 50 ppm in experiment [3] came out at 5%. Besides, the mortality at 5 ppm in experiment [4] was 0%. In addition, in experiment [5], the mortality amounted to 0%.

Regarding `CN1CCCCC1C1CSSC1.O=C(O)C(=O)O` (stereo not drawn), the values for the mortality at 500 ppm in experiment [1] and in experiment [2] were 100% and 10%, respectively. The mortality at 50 ppm in experiment [3] is 100%. The mortality at 5 ppm in experiment [4] came to 95%. In addition, the mortality in experiment [5] turned out to be 70%.

As to `CN(C)CC1CCSS1.O=C(O)C(=O)O` (stereo not drawn), the mortality at 500 ppm came out at 100% in experiment [1] and 30% in experiment [2]. The LD50 in experiment [6] was 4.3 mg/kg. Moreover, the mortality at 50 ppm in experiment [3] stood at 80%. In experiment [4], the mortality at 5 ppm stood at 100%. For the same molecule, the mortality in experiment [5] came to 100%.

As for `O=C(O)C(=O)O.O=[N+]([O-])c1cccc2c1SSC2`, the figures for the mortality at 500 ppm in experiment [1] and in experiment [2] were 100% and 30%, respectively. Besides, in experiment [3], the mortality at 50 ppm is 80%. The mortality at 5 ppm in experiment [4] was 95%. In addition, the mortality in experiment [5] worked out at 10%.

Take `CN(C)CCC1CCSS1.O=C(O)C(=O)O` (stereo not drawn): the mortality at 500 ppm in experiment [1] is 100%; in experiment [2] it was 0%. Further, in experiment [6], the median lethal dose (LD50) amounted to 23.2 mg/kg. In addition, the LC50 in experiment [7] was 126 µg/mL. For the same molecule, in experiment [3], the mortality at 50 ppm is 20%. Further, the mortality at 5 ppm in experiment [4] was 100%. Further, the mortality in experiment [5] came out at 100%.

For `CN(C)NC1CSSC1.O=C(O)C(=O)O`, the mortality at 500 ppm turned out to be 100% in experiment [1] and 0% in experiment [2]. Besides, the LD50 in experiment [6] is 36.2 mg/kg. The mortality at 50 ppm in experiment [3] was 45%. Moreover, the mortality at 5 ppm in experiment [4] stood at 25%. The mortality in experiment [5] worked out at 100%.

For the molecule `CN(C)CC1CCCSS1.O=C(O)C(=O)O` (stereo not drawn), the mortality at 500 ppm turned out to be 20% in experiment [1] and 0% in experiment [2]. Besides, in experiment [3], the mortality at 50 ppm amounted to 50%. Moreover, the mortality at 5 ppm in experiment [4] came out at 0%. The mortality in experiment [5] was found to be 0%.

Consider `O=C(O)C(=O)O.c1ccc(C2CSSC2)nc1`, for which the mortality at 500 ppm in experiment [1] is 100%; in experiment [2], 0%. In addition, the mortality at 50 ppm in experiment [3] is 70%. Besides, the mortality at 5 ppm in experiment [4] was found to be 100%. Besides, the mortality in experiment [5] came to 10%.

For the molecule `CN(C)CCCC1CSSC1.O=C(O)C(=O)O`, the mortality at 500 ppm amounted to 100% in experiment [1] and 0% in experiment [2]. Moreover, the mortality at 50 ppm in experiment [3] was found to be 10%. Also, the mortality at 5 ppm in experiment [4] was determined as 40%. Besides, the mortality in experiment [5] came out at 60%.

With `CN(C)N(C)C1CSSC1.O=C(O)C(=O)O`, the figures for the mortality at 500 ppm in experiment [1] and in experiment [2] were 100% and 0%, respectively. In experiment [6], the median lethal dose (LD50) came out at 15 mg/kg. Moreover, the mortality at 50 ppm in experiment [3] amounted to 60%. For the same molecule, in experiment [4], the mortality at 5 ppm was 100%. Moreover, in experiment [5], the mortality is 100%.

Turning to `CN(C)CCC1CSSC1.O=C(O)C(=O)O`, the mortality at 500 ppm in experiment [1] was determined as 100%; in experiment [2], 40%. Also, the LD50 in experiment [6] worked out at 28.1 mg/kg. The mortality at 50 ppm in experiment [3] stood at 100%. Also, the mortality at 5 ppm in experiment [4] came out at 95%. Besides, the mortality in experiment [5] amounted to 100%.

`CC1CC(CN(C)C)SS1.O=C(O)C(=O)O` (stereo not drawn): the mortality at 500 ppm in experiment [1] was 100%; in experiment [2] it was 20%. Further, in experiment [3], the mortality at 50 ppm came to 95%. Also, the mortality at 5 ppm in experiment [4] is 0%. The mortality in experiment [5] came to 80%.

For the molecule `CN(C)CC1(C)CSSC1.O=C(O)C(=O)O`, the results for the mortality at 500 ppm in experiment [1] and in experiment [2] were 90% and 40%, respectively. Besides, the mortality at 50 ppm in experiment [3] was found to be 100%. Further, the mortality at 5 ppm in experiment [4] was 100%. Moreover, the mortality in experiment [5] stood at 70%.

Regarding `CN(C)C[C@H]1C[C@H](CN(C)C)SS1.O=C(O)C(=O)O` (relative stereo), the mortality at 500 ppm in experiment [1] was 90%; in experiment [2], 0%. For the same molecule, the LC50 in experiment [7] is 116 µg/mL. Also, the mortality at 50 ppm in experiment [3] turned out to be 20%. In addition, the mortality at 5 ppm in experiment [4] came to 0%. Besides, the mortality in experiment [5] turned out to be 0%.

As for `CC(C)C1CSSC1`, the mortality at 500 ppm in experiment [1] is 50%; in experiment [2], 20%. Besides, the mortality at 50 ppm in experiment [3] was 0%. The mortality at 5 ppm in experiment [4] is 0%. Also, the mortality in experiment [5] was 20%.
